{
  "source": "ChEMBL document CHEMBL1135337",
  "about": "“Synthesis and DNA binding properties of saturated distamycin analogues” (Bioorg Med Chem Lett, 2002)",
  "data": [
    {"system": "Nucleic Acid", "experiment": "Concentration required for 50% displacement of ethidium bromide from p[dA]p[dT] in a fluorescence intercalator displacement (FID) assay", "format": "nucleic-acid assay", "units": {"C50": "µM"}, "values": [
      {"smiles": "N=C(N)CCNC(=O)[C@@H]1C[C@@H](NC(=O)[C@@H]2C[C@@H](NC(=O)[C@@H]3C[C@@H](NC=O)CN3C(=O)OCc3ccccc3)CN2C(=O)OCc2ccccc2)CN1C(=O)OCc1ccccc1", "C50": 5.1},
      {"smiles": "N=C(N)CCNC(=O)[C@@H]1C[C@@H](NC(=O)[C@@H]2C[C@@H](NC(=O)[C@@H]3C[C@@H](NC=O)CN3)CN2)CN1", "C50": 8.55},
      {"smiles": "N=C(N)CCNC(=O)[C@@H]1CC[C@@H](NC(=O)[C@@H]2CC[C@@H](NC(=O)[C@@H]3CC[C@@H](NC=O)C3)C2)C1", "C50": 7.91},
      {"smiles": "N=C(N)CCNC(=O)[C@H]1C[C@H](NC(=O)[C@H]2C[C@H](NC(=O)[C@H]3C[C@H](NC=O)CO3)CO2)CO1", "C50": 5.4},
      {"smiles": "N=C(N)CCNC(=O)[C@H]1C[C@H](NC(=O)[C@H]2C[C@H](NC(=O)C3C[C@H](NC=O)CN3C(=O)OCc3ccccc3)CN2C(=O)OCc2ccccc2)CN1C(=O)OCc1ccccc1", "note": "(some centres undefined)", "C50": 4.7},
      {"smiles": "CN1C[C@@H](NC(=O)[C@H]2C[C@H](NC(=O)[C@H]3C[C@H](NC=O)CN3C)CN2C)C[C@@H]1C(=O)NCCC(=N)N", "C50": 6.7},
      {"smiles": "Cn1cc(NC(=O)c2cc(NC(=O)c3cc(NC=O)cn3C)cn2C)cc1C(=O)NCCC(=N)N", "C50": 0.46},
      {"smiles": "N=C(N)CCNC(=O)[C@@H]1C[C@@H](NC(=O)[C@@H]2C[C@@H](NC(=O)[C@@H]3C[C@@H](NC=O)CO3)CO2)CO1", "C50": 5.5},
      {"smiles": "N=C(N)CCNC(=O)[C@H]1C[C@H](NC(=O)[C@H]2C[C@H](NC(=O)[C@H]3C[C@H](NC=O)CN3)CN2)CN1", "C50": 6.37}
    ]}
  ]
}
